Laboratory results from paper PMC6691385, “Au Hollow Nanorods-Chimeric Peptide Nanocarrier for NIR-II Photothermal Therapy and Real-time Apoptosis Imaging for Tumor Theranostics” (Theranostics, 2019).

Key:
[1] = system: HeLa cells; test: MTT cytotoxicity assay; type: cell-based; settings: 10 ppm; cells treated with AuHNRs-DTPP and laser
Description: The in vitro cytotoxicity of AuHNRs-DTPP nanocarrier against HeLa cells were studied by standard MTT assay. In brief, HeLa cells were seeded on 96-well plates with a density of 5000 cells per well. When the cell density came to 80%, the medium was removed and various concentrations of AuHNRs-DTPP nanocarrier in DMEM with 10% FBS were added. After incubation for 6 h, the medium was replaced by 200 μL of fresh medium. For none-treated group or single laser treated group, cells received corresponding treatment and then further incubated for 48 h. And for combined treatment group, cells received 1064 nm laser irradiation and incubated for 2 h. After that, cells received laser irradiation (633 nm) and then further incubated for 48 h. Then, the standard MTT assay was conducted to determine the cell viability. And for COS-7, same operation process was taken.

[2] = Fluorescence, ROS and singlet oxygen generation, cell-free
[3] = system: H22 tumor; test: In vivo fluorescence imaging; settings: tumor bearing mice; i.v.; before laser irradiation, within 8 h
Description: Animal experiments were conducted based on the guidelines for laboratory animals established by the Huazhong Agricultural University. In vivo imaging started when tumor volume approximated 200 mm^3. For photothermal imaging 200 μL AuHNRs-DTPP was intravenously injected into the mice, and the equal volume of PBS buffer was taken as the control. Infrared thermal images were recorded by using a FLIR E85 camera under 1064 nm laser irradiation at a power density of 0.69 W·cm^-2. In vivo fluorescence imaging was collected by a Maestro in vivo imaging system. The tumor bearing mice were intravenously administrated with 200 μL AuHNRs-DTPP (1 g·L^-1) or free DTPP (30 mg·L^-1) solution. Then the mice were anesthetized and imaged at pre-set time. It should be noted that mice received 1064 nm laser irradiation (10 min, 0.69 W·cm^-2) at the 8th h post-injection.

[4] = Solubility of DTPP; type: physicochemical

Compound | effect on cell viability as ROS scavenger [1] | singlet oxygen ESR signal ([2]; treated with laser) | singlet oxygen ESR signal ([2]; without laser irradiation) | in vivo fluorescence signal [3] | solubility in DI water ([4]; DI water) | solubility in PBS ([4]; PBS)
O=C1O[C@H]([C@@H](O)CO)C(O)=C1O [Vitamin C] | significantly improve the cell viability | – | – | – | – | –
PpIX-PEG8-GGK(TPP)GRDEVDGC [DTPP] | – | obvious ESR signal | no ESR signal | fluorescence signal appeared all over the body | almost insoluble | good solubility
